The record followed here is patent publication US8193218B2, “Aroyl-piperidine derivatives and method of treating disorders induced by substance P” (Novartis AG, priority 2002, dated 2012).

The target of data set [1] is T1, binding of H^3-substance P to bovine retina (Bos taurus, UniProt F1MIX5).
T1 construct: from tissue; host or cells: bovine retina
Description: binding of H^3-substance P to bovine retina, radio receptor assay. To be noted: read-out: in vitro values (IC50), inhibition of binding of H^3-substance P to bovine retina. On the procedure: In addition, the binding of H^3-substance P to bovine retina in the radio receptor assay according to H. Bittiger, Ciba Foundation Symposium 91, 196-199 (1982) is inhibited with IC50 values of from approximately 1 nmol. For example, the following in vitro values of about 10 nM were obtained for the target compounds of Examples 1 and 2.

T1 sequence (F1MIX5 1-407): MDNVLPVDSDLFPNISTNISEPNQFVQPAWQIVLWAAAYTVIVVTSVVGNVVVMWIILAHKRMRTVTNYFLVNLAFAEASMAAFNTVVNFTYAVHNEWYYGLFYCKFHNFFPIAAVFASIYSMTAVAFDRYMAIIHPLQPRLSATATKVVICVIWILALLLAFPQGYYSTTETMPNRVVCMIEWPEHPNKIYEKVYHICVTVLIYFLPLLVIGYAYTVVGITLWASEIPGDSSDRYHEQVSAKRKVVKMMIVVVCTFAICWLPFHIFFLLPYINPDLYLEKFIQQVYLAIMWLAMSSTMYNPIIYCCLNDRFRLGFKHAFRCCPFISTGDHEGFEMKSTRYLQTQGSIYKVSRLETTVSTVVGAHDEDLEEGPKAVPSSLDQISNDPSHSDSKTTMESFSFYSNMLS

In the case of `O=C(N[C@H]1CCN(C(=O)c2cc(C(F)(F)F)cc(C(F)(F)F)c2)[C@H](Cc2ccc(Cl)cc2)C1)c1cc[n+]([O-])c2ccccc12` [Example 1, 1-Oxy-quinoline-4-carboxylic acid [(2R,4S)-1-(3,5-bis-trifluoromethyl-benzoyl)-2-(4-chloro-benzyl)-piperidin-4-yl]-amide], the melting point was in the range of 223 to 225 °C. Also, in data set [1], the IC50 is roughly 10 nM.
The corresponding values for `O=C(N[C@H]1CCN(C(=O)c2cc(C(F)(F)F)cc(C(F)(F)F)c2)[C@H](Cc2ccc(Cl)cc2)C1)c1cc(O)nc2ccccc12` [Example 2, 2-Hydroxy-quinoline-4-carboxylic acid [(2R,4S)-1-(3,5-bis-trifluoromethyl-benzoyl)-2-(4-chloro-benzyl)-piperidin-4-yl]-amide] are 222 to 224 °C and roughly 10 nM.

For orientation: IC50 means the midpoint of a concentration-inhibition curve. Broadly, the melting point is the temperature of the solid-liquid transition.
